# Results taken from US9796755B2, “Methods of treating depression and other related diseases” (Northwestern University, priority 2009, dated 2017).
# Read-outs that look alike come from different tables or passages of the source. Where a SMILES comes first, the peptide text is derived from it.
# Experiments:
# rats [1] = assay: Porsolt test (Forced Swim Test), systemic dosing; format: in vivo, rat; settings: for effect on floating times in the Porsolt test: Sprague Dawley rats, 20-60 min post dosing
# Description: For the evaluation of the antidepressant actions of GLYX-13, the effect of GLYX-13 in the Porsolt test of depression was examined in rats. Porsolt testing is the most commonly used test for assessment of depression in animal model, Porsolt testing, also known as Forced Swim Test, is based on a behavioral trait that is sensitive to changes in affective state. During this test, the animal is placed in a tank (18 cm diameter×45 cm height) filled to 30 cm with 22-23° C. water. After placing the animal in the tank, the amount of time for which the rat is immobile when it stops struggling is measured. Porsolt test is based on the fact that antidepressants increase the latency to immobility and decrease the time for which the rat is immobile. […] The interpretation of the Porsolt test is that the antidepressants reinstate active coping mechanisms and decrease the passive immobility evoked by stress.
# In order to evaluate the effectiveness of GLYX-13 as antidepressant, three month old FBNF1 rats were separated into two groups of 9 animals. The first group of rats was intravenously injected with 10 mg/kg GLYX-13 and the second group of animals was intravenously injected with PBS vehicle (1 ml/kg) in a blind manner via chronic subdural femoral vein access ports. Both groups of animals were injected 10 to 15 minutes before the start of testing.
# For Porsolt testing, animals were given a 15 minute pre-test habituation in the tank to induce learned helplessness on day one. Following this, on the subsequent day, the animals were injected with GLYX-13 or vehicle 10-15 minutes before being placed into the tank for a 5 minute test session. After placing the animals in the tank, the amount of time for which each animal is immobile when it stops struggling (Mean Immobility Time) was measured. Decrease in Mean Immobility Time is a measure of the effectiveness of the antidepressant.
# A second experiment was performed in the same manner as Example 1, except that 2-3 month Sprague-Dawley rats were used, and treated with either intravenous (1, 3, 10, 32 mg/kg), subcutaneous (1, 3, 10, 32, 56, 100 mg/kg) injections of GLYX-13 or saline vehicle (1 mg/ml) 15 (i,v.) or 20 (s.c.) min before the start of the final 5 min test session. Ketamine (10 mg/kg i.p.) was given 60 min befbre the start of testing (Garcia et al., (2008) Prog Neuropsychopharmacol Biol Psychiatry, 32, 140-144).
# To determine whether the antidepressant effect of GLYX-13 was specific to the sequence of the GLXY-13 peptide, mean time (sec) spent floating in the Porsolt test was determined in groups of 12 three-month old Sprague Dawley rats administered with GLYX-13 (TPPT-NH2 (SEQ ID NO: 13); 3 mg/kg , i.v. tail vein), a scrambled peptide (PTPT-NH3(SEQ ID NO: 19); 3 mg/kg i.v. tail vein), or 0.9% saline vehicle (1 ml/kg, i.v. tail vein). Administration occurred 60 min before the 5 min testing session. Animals received a 15 min training swim session one day before dosing.
# To evaluate whether the anti-depressive and anxiolytic effects of GLYX-13 would persist beyond a few hours, rats were tested in the Porsolt test and the Open Field test, described above. Groups of 10-11 three-month old Sprague-Dawley rats were pretreated with GLYX-13 (3 mg/kg i.v.), ketamine (10 mg/kg i.v.) or saline vehicle injection (1 mg/ml i.v. tail vein) 96 hrs before the start of testing. Animals received a single 15 min. training swim session one day before dosing. Animals were tested 96 hrs post dosing in the Porsolt test without any testing during the intervening period. Open field testing was conducted without pre-habituation 1 day after Porsolt testing (i.e. 120 hrs post dosing). Mean(±SEM) time (sec.) spent floating in the Porsolt test, time spent in the center compartment (sec.), and line crosses in the open field test were determined.
# The Porsolt test adapted for use in rats was performed as above. […]
# rats [2] = assay: Prepulse inhibition; format: in vivo, rat; settings: Sprague-Dawley rats; GLYX-13 10 mg/kg IV tested 15 min post injection; ketamine 10 mg/kg IP tested immediately
# Description: Animals were given intravenous injections of GLYX-13 (10 mg/kg) or saline via chronic indwelling femoral vein cannulae and tested 15 min post injection, or intraperitoneal ketamine (10 mg/kg) or saline vehicle (1 mL/kg IV or IP respectively) and tested immediately post injection for prepulse inhibition.
# rats [3] = assay: Conditioned place preference; format: in vivo, rat; settings: GLYX-13 10 mg/kg IV; ketamine 10 mg/kg IV
# Description: Animals were trained with GLYX-13 (10 mg/kg, IV), ketamine (10 mg/kg, IV), or saline vehicle (1 mL/kg, IV) utilizing an unbiased two-chamber conditioned place preference apparatus.
# β-catenin = assay: Total β-catenin protein level in medial prefrontal cortex; format: in vivo, rat; settings: 24 hrs after GLYX-13 3 mg/kg IV or ketamine 10 mg/kg IV
# GluR1 = assay: Total and phosphoserine-845 GluR1 by Western blot in medial prefrontal cortex; format: in vivo, rat; settings: 24 hrs after GLYX-13 3 mg/kg IV or ketamine 10 mg/kg IV
# Description: Total and Phosphoserine-9 glycogen synthase kinase 3β (GSK-3β) were quantified by ELISA according to the manufacturer's instructions (catalog numbers ADI-900-144 and ADI-900-123A, Assay Designs, USA). Total and phosphoserine-845 GluR1 were quantified by Western blot.
# [4] = CSF concentration of GLYX-13 after IV administration (LC-MS/MS); format: in vivo; settings: male, Sprague Dawley, rat, cerebrospinal fluid (CSF), rats, read-out: Cmax within the CSF compartment
# Description: Male Sprague Dawley rats (250-300 g) received intravenous injections of GLYX-13 (3-10 mg/kg), briefly anesthetized with isoflurane, and cerebrospinal fluid (CSF) samples drawn and stored at −70° C. until analysis.
# CSF samples were precipitated with internal standard Pro-Thr-Pro-Ser-NH2 (SEQ ID NO: 20) in 400 μl of acetonitrile. Supernatant extract was separated by HPLC (LC-20AD, Shimadzu, Japan) using a Synergi 4μ Hydro-RP 8A column (Phenomenex, USA) with mobile phase of 100 mM ammonium formate with 0.1% formic acid for 0 1 minute followed by acetonitrile with 0.1% formic acid and samples were analyzed by LC-MS/MS (API4000, Applied Biosystems, USA) in ESI positive ion mode and the GLYX-13 (199.1 and 216.1) and IS (202.3) daughter ions quantified by multiple reaction monitoring. The lower limit of quantitation for the assay was 26.3 nM GLYX-13.
smiles,measurement,setting,value
"C[C@@H](O)[C@H](N)C(=O)N1CCC[C@H]1C(=O)N1CCC[C@H]1C(=O)N[C@H](C(N)=O)[C@@H](C)O [GLYX-13, L-threonyl-L-prolyl-L-prolyl-L-threonine amide] (H-TPPT-NH2)",activity in the Porsolt test,rats [1]; 10 mg/kg SC,active
same,effect on floating times in the Porsolt test,rats [1]; 3-10 mg/kg IV,significantly (P<0.05) reduced floating times
same,effect on floating times in the Porsolt test,rats [1]; 10-30 mg/kg SC,significantly (P<0.05) reduced floating times
same,onset of action,"rats [1]; single dose, rats",within minutes
same,"prepulse inhibition, an indicator of dissociative effects",rats [2],did not exhibit either of these effects
same,"conditioned place preference, an indicator of abuse potential",rats [3],did not exhibit either of these effects
same,total β-catenin,β-catenin,reduced
same,Phosphoserine-845 GluR1/total GluR1 ratio,GluR1,increased
same,Cmax,[4]; 3 mg/kg IV,60 nM
same,Cmax,[4]; 10 mg/kg IV,200 nM
